Experimental data: PubChem BioAssay (NCI)
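In this assay, cells in 96-well plates receive the compound at five concentrations for 48 hours. Endpoints are linearly interpolated between the surrounding concentrations. Here, GI50 denotes the concentration required for 50% inhibition of growth. At the TGI there is no net growth.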

What was measured:
Experiment in all cases: NCI-60 cell line screen, 48 h
SK-MEL-28 melanoma = system: SK-MEL-28 melanoma
SK-OV-3 ovarian = system: SK-OV-3 ovarian
SW-620 colon = system: SW-620 colon
BT-549 breast = system: BT-549 breast
SNB-19 CNS = system: SNB-19 CNS
PC-3 prostate = system: PC-3 prostate
HS 578T breast = system: HS 578T breast
SNB-78 CNS = system: SNB-78 CNS
DLD-1 colon = system: DLD-1 colon

SMILES	GI50 (SK-MEL-28 melanoma)	TGI (SK-MEL-28 melanoma)	GI50 (SK-OV-3 ovarian)	TGI (SK-OV-3 ovarian)	GI50 (SW-620 colon)	TGI (SW-620 colon)	GI50 (BT-549 breast)	TGI (BT-549 breast)	GI50 (SNB-19 CNS)	TGI (SNB-19 CNS)	GI50 (PC-3 prostate)	TGI (PC-3 prostate)	GI50 (HS 578T breast)	TGI (HS 578T breast)	TGI (SNB-78 CNS)	TGI (DLD-1 colon)	GI50 (SNB-78 CNS)	GI50 (DLD-1 colon)
Cc1c2c(nn1-c1ccc(S(=O)(=O)NC(=S)Nc3ccccc3)cc1)-c1ccccc1CC2	> 50 µM	> 50 µM	> 50 µM	> 50 µM	> 50 µM	> 50 µM	> 50 µM	> 50 µM	> 50 µM	> 50 µM	39.9 µM	> 50 µM	44.6 µM	> 50 µM	–	–	–	–
Nc1nc(SCc2ccccn2)c2ncn(C3CCCC3)c2n1	–	> 100 µM	–	> 100 µM	–	> 100 µM	–	> 100 µM	–	> 100 µM	–	> 100 µM	–	88.5 µM	–	–	–	–
COc1cc(C2C=C(c3cccc(NC(C)=O)c3)Nc3ncnn32)cc(OC)c1OC (configuration not stated)	0.29 µM	> 100 µM	0.903 µM	> 100 µM	0.313 µM	> 100 µM	1.07 µM	> 100 µM	1.21 µM	> 100 µM	1.13 µM	> 100 µM	0.153 µM	0.413 µM	–	–	–	–
CN(C)c1cccc2c(S(=O)(=O)N[C@H]3CC[C@H]4[C@@H]5CCc6cc(O)ccc6[C@H]5CC[C@]34C)cccc12	2.2 µM	5.89 µM	3.83 µM	74.3 µM	2.72 µM	14 µM	2.55 µM	6.5 µM	3.43 µM	> 100 µM	2.36 µM	> 100 µM	2.86 µM	11.3 µM	–	–	–	–
COc1cccc(C2CC(C)(N3CCCC3)Oc3cc4c(cc32)OCO4)c1O (configuration not stated)	–	> 51.5 µM	–	> 100 µM	–	> 100 µM	–	87.7 µM	–	> 100 µM	–	> 76.1 µM	–	57.7 µM	–	–	–	–
CCOc1cc2ncc(C#N)c(Nc3ccc(OCc4cccc(F)c4)c(Cl)c3)c2cc1NC(=O)CC1CCSS1 (configuration not stated)	1.2 µM	> 19.3 µM	0.476 µM	0.905 µM	> 25 µM	> 25 µM	1.87 µM	> 25 µM	> 25 µM	> 25 µM	0.801 µM	5.91 µM	4.12 µM	> 25 µM	–	–	–	–
COc1cc(/C(C#N)=C/c2ccc3c(c2OC)OCO3)cc2c1OCO2	1.24 µM	> 100 µM	0.113 µM	14.2 µM	0.0412 µM	> 100 µM	0.669 µM	29.3 µM	0.236 µM	20.4 µM	0.0967 µM	> 78.4 µM	0.0448 µM	0.4 µM	–	–	–	–
COc1ccc(N=C2CSc3nnc(-c4cc(F)c(Cl)cc4Cl)n3N2)cc1	2.38 µM	21.4 µM	0.987 µM	5.39 µM	0.553 µM	13.1 µM	1.77 µM	24.4 µM	0.776 µM	18.9 µM	1.17 µM	13.9 µM	1.5 µM	9 µM	–	–	–	–
Cn1c(=O)nc2n(-c3ccc(Cl)cc3)c3ccc(Cl)cc3nc-2c1=O	–	21.4 µM	–	> 100 µM	–	19.2 µM	–	–	–	–	–	–	–	–	29.6 µM	–	–	–
Nc1ccn(CCOC(=O)c2ccccc2)c(=O)n1	–	> 100 µM	–	> 100 µM	–	> 100 µM	–	–	–	–	–	–	–	–	> 100 µM	> 100 µM	–	–
N#Cc1cn(C2OC(CO)C(O)C2O)c2ncnc(N)c12 (configuration not stated)	0.0329 µM	–	0.108 µM	–	< 0.0145 µM	> 100 µM	–	–	–	–	–	–	–	1.33 µM	> 450 µM	> 272 µM	0.0736 µM	0.0277 µM
O=C(CCCCCCSc1nc(-c2ccccc2)cc(-c2ccc(Cl)cc2)n1)NO	2.94 µM	12.1 µM	2.36 µM	6.04 µM	1.48 µM	10.4 µM	3.67 µM	17.5 µM	2.63 µM	11.2 µM	1.98 µM	10.5 µM	2.76 µM	20.1 µM	–	–	–	–
O=P(O)(CCP(=O)(O)c1ccccc1)c1ccccc1	–	> 100 µM	–	> 100 µM	–	> 100 µM	–	> 100 µM	–	> 100 µM	–	> 100 µM	–	> 100 µM	–	–	–	–
COc1ccc2nc(N/N=C(\C)c3ccccn3)cc(C)c2c1	0.445 µM	1.68 µM	0.269 µM	2.08 µM	0.381 µM	1.75 µM	0.168 µM	1.96 µM	0.382 µM	2.12 µM	0.433 µM	5.68 µM	1.76 µM	9.39 µM	–	–	–	–
CNC(=O)c1cc(OC2CCC(NC(=O)Nc3ccc(Cl)c(C(F)(F)F)c3)CC2)ccn1 (configuration not stated)	11.4 µM	24.6 µM	18.8 µM	40.1 µM	11.5 µM	31.2 µM	7.8 µM	23.6 µM	7.91 µM	32.2 µM	3.51 µM	> 44.6 µM	11.6 µM	63.1 µM	–	–	–	–
Cc1ccc(CNc2c3ccccc3nc3ccccc23)cc1	1.84 µM	4.16 µM	2.59 µM	10.8 µM	1.62 µM	5.32 µM	2.43 µM	6.34 µM	3.33 µM	14.2 µM	1.87 µM	7.11 µM	2.46 µM	6.6 µM	–	–	–	–
C=C1CC2(OC1=O)C(=O)N(CCCCCCCN1C(=O)C3(CC(=C)C(=O)O3)c3ccccc31)c1ccccc12 (configuration not stated)	1.94 µM	7.3 µM	9.97 µM	37.8 µM	0.938 µM	2.21 µM	2.22 µM	9.14 µM	8.52 µM	22 µM	1.53 µM	6.58 µM	5.92 µM	32.3 µM	–	–	–	–
O=C(CN1CCN(c2ncccn2)CC1)Nc1ccc(Cl)cc1C(=O)c1ccccc1Cl	> 100 µM	> 100 µM	> 100 µM	> 100 µM	> 100 µM	> 100 µM	> 100 µM	> 100 µM	> 100 µM	> 100 µM	9.47 µM	> 100 µM	83.6 µM	> 100 µM	–	–	–	–

SMILES	GI50 (SK-MEL-28 melanoma)	TGI (SK-MEL-28 melanoma)	GI50 (SK-OV-3 ovarian)	TGI (SK-OV-3 ovarian)	GI50 (SW-620 colon)	TGI (SW-620 colon)	GI50 (BT-549 breast)	TGI (BT-549 breast)	GI50 (SNB-19 CNS)	TGI (SNB-19 CNS)	GI50 (PC-3 prostate)	TGI (PC-3 prostate)	GI50 (HS 578T breast)	TGI (HS 578T breast)	TGI (SNB-78 CNS)	TGI (DLD-1 colon)	GI50 (SNB-78 CNS)	GI50 (DLD-1 colon)
Cc1ncc(CN=Cc2ccc(Cl)cc2)c(N)n1	–	> 100 µM	–	> 100 µM	–	> 100 µM	–	> 100 µM	–	> 100 µM	–	> 100 µM	–	> 100 µM	–	–	–	–
C=CCn1c2c(c3ccccc3c1=O)C(=O)c1ccccc1-2	–	> 100 µM	–	> 100 µM	–	> 100 µM	–	> 100 µM	–	> 100 µM	–	> 100 µM	–	> 100 µM	–	–	–	–
CS(=O)(=O)CCNCc1nc(-c2ccc3ncnc(Nc4ccc(F)c(Cl)c4)c3c2)cs1	> 20.2 µM	> 25 µM	1.96 µM	11 µM	> 25 µM	> 25 µM	> 25 µM	> 25 µM	> 25 µM	> 25 µM	14.7 µM	> 25 µM	15.9 µM	> 25 µM	–	–	–	–
N=C1C(c2nc(-c3ccc(Br)cc3)cs2)=C(O)CN1Cc1cccnc1	15.7 µM	51.7 µM	25.3 µM	> 100 µM	4.75 µM	26.7 µM	42.6 µM	> 100 µM	40.1 µM	> 100 µM	44.3 µM	> 100 µM	–	2.86 µM	–	–	–	–
C=C1C(=O)O[C@H]2[C@H]1CC/C(Cn1cc(CNC(=O)Cc3cn(C(=O)c4ccc(Cl)cc4)c4ccc(OC)cc34)nn1)=C\CC[C@@]1(C)O[C@@H]21	1.62 µM	3.07 µM	16.1 µM	32.9 µM	0.932 µM	2.65 µM	1.61 µM	3.41 µM	2.14 µM	4.77 µM	1.89 µM	3.71 µM	2.61 µM	6.78 µM	–	–	–	–
ClCc1cccc(Cn2cnc3c(Cl)ncnc32)c1	2.23 µM	5.69 µM	3.31 µM	10.6 µM	2.12 µM	4.33 µM	15.3 µM	30.2 µM	2.66 µM	12.5 µM	4.18 µM	18.3 µM	3.48 µM	11.5 µM	–	–	–	–
O=C1NCc2ccc3c(-c4cccc(Cl)c4)c[nH]c3c21	2.21 µM	> 50 µM	0.339 µM	> 50 µM	0.195 µM	> 50 µM	0.245 µM	> 45.7 µM	0.29 µM	> 50 µM	0.281 µM	> 50 µM	0.182 µM	> 50 µM	–	–	–	–
O=C(Nc1ccc(N2CCNCC2)cc1)c1[nH]ncc1Nc1ncnc2sc3c(c12)CCC3	1 µM	2.29 µM	0.257 µM	1.56 µM	0.157 µM	0.756 µM	1.13 µM	2.4 µM	0.274 µM	1.69 µM	0.179 µM	1.49 µM	0.0994 µM	2.08 µM	–	–	–	–
COc1ccc2c(c1)[nH]c(=O)c1c3cc(C)c(C)cc3cn21	< 0.01 µM	1.91 µM	< 0.0194 µM	4.59 µM	< 0.01 µM	1.47 µM	0.024 µM	0.366 µM	< 0.0226 µM	4.66 µM	< 0.01 µM	1.58 µM	< 0.01 µM	–	–	–	–	–
CC(=O)Nc1ccc2c(c1)c(C1=C(c3cn(C)c4ccccc34)C(=O)NC1=O)cn2C	3.62 µM	> 25 µM	1.22 µM	> 25 µM	1.02 µM	> 25 µM	1.55 µM	14.8 µM	> 18.2 µM	> 25 µM	0.754 µM	22.1 µM	0.596 µM	> 6.79 µM	–	–	–	–
CNC(P(=O)([O-])[O-])P(=O)([O-])[O-].N.N.[Pt+2]	> 100 µM	> 100 µM	–	–	> 100 µM	> 100 µM	–	–	> 100 µM	> 100 µM	–	–	–	–	> 100 µM	> 100 µM	> 100 µM	> 100 µM
COc1cc(O)c([C@@H]2C[C@H](CCc3ccc(O)cc3)O[C@H](c3ccc(O)cc3)C2)c(O)c1C(=O)/C=C/c1ccc(O)cc1	3.28 µM	12 µM	2.74 µM	6.11 µM	2.24 µM	6.12 µM	2.39 µM	5.34 µM	3.37 µM	10.6 µM	2.45 µM	6.94 µM	2.53 µM	15.4 µM	–	–	–	–
COc1ccc(-c2nn3ncccc3c2-c2ccnc(Nc3ccc(Cl)c(C(F)(F)F)c3)n2)cc1	16.9 µM	> 25 µM	13.1 µM	> 25 µM	14.4 µM	> 25 µM	10.2 µM	> 25 µM	16 µM	> 25 µM	6.2 µM	> 25 µM	9.15 µM	> 25 µM	–	–	–	–
N#CCC1COc2ccccc2O1 (configuration not stated)	–	> 10 µM	–	> 10 µM	–	> 10 µM	–	> 10 µM	–	> 10 µM	–	> 10 µM	–	> 10 µM	–	–	–	–
COc1cc(-c2nn(-c3ccc(NC(=O)c4ccc(Cl)c(Cl)c4)cc3)cc2-c2ccncc2)ccc1Cl	40.3 µM	> 100 µM	> 100 µM	> 100 µM	5.63 µM	> 100 µM	> 100 µM	> 100 µM	26.7 µM	> 100 µM	6.28 µM	> 100 µM	4.13 µM	> 100 µM	–	–	–	–
COc1cc(C2CC(c3ccc(C)cc3)=NN2C=O)ccc1Oc1ccnc2cc(Cl)ccc12 (configuration not stated)	> 50 µM	> 50 µM	7.2 µM	> 50 µM	> 50 µM	> 50 µM	3.96 µM	> 50 µM	9.53 µM	> 50 µM	> 50 µM	> 50 µM	1.82 µM	> 50 µM	–	–	–	–
COC(=O)N[C@H]1CCc2c(Br)c(OC)c(OC)c(OC)c2-c2ccc(SC)c(=O)cc21	6.99 µM	25.1 µM	< 0.01 µM	> 100 µM	< 0.01 µM	19.7 µM	< 0.01 µM	14.9 µM	< 0.01 µM	> 49.7 µM	< 0.01 µM	32.6 µM	< 0.01 µM	> 52.1 µM	–	–	–	–
COc1ccc2c(c1)/C(=C\c1c(C)nc3sc(C)cn13)C(=O)N2C	7.26 µM	35.5 µM	2.35 µM	7.18 µM	3.25 µM	18 µM	6.01 µM	49.7 µM	4.08 µM	> 100 µM	6.9 µM	62.4 µM	1.83 µM	5.4 µM	–	–	–	–
